Results: patent publication US10118954B2, “Apelin analogues” (University of Ulster, priority 2014, dated 2018)

Tested on: high fat fed NIH Swiss mice
Assay: 28 day long-term study of fatty acid apelin analogues, once daily i.p. administration
Assay type: in vivo
Text: NIH Swiss mice (Harlan UK Ltd., Blackthorne, UK) were derived from a nucleus colony obtained from the National Institute of Health, Bethesda, Md., USA. One group of mice were maintained on a standard rodent diet (10% fat, 30% protein, 60% carbohydrate; percent of total energy 12.99 kJ/g, Trouw Nutrition, Cheshire, UK) and used as a model of normal glycaemia. Other NIH Swiss mice were maintained on a high fat diet (45% fat, 20% protein, 35% carbohydrate; percent of total energy 26.15 kJ/g; Dietex, Essex, UK) from 8 weeks of age for 150 days to produce a model of diet induced obesity-diabetes. […] All mice were housed in an air-conditioned room maintained at 22±2° C. with a 12 h light: 12 h dark cycle (08:00-20:00 h), were singly caged, and selected for experimental groups according to body weight and non-fasted blood glucose. Drinking water and diet were freely available. All animal studies were performed in accordance with the UK Animals (Scientific Procedures) Act 1986.
For another 28 day long-term study of selected fatty acid apelin analogues administered once daily, normal control NIH Swiss (n=8) and high-fat fed NIH Swiss (n=8) were grouped and received once daily i.p. injections of saline vehicle (0.9% NaCl (w/v)) at 17:00 h over a 4 day run-in period. Following the run-in period, normal control (n=8) and high-fat fed mice (n=8) received once daily (17:00 h) i.p. administration of saline vehicle (0.9% NaCl (w/v)) for 28 days. Additional groups of high-fat fed mice (n=8) received once daily i.p. injections of (Lys^8gluPal)apelin-13-amide, pGlu(Lys^8gluPal)apelin-13-amide or liraglutide (each at 25 nmol/kg bw) over a 28 day treatment period.
Food intake, body weight, blood glucose and plasma insulin were monitored at intervals of 2-3 days throughout the run-in and 28 day treatment period. Blood samples for glucose and plasma insulin measurement were collected at intervals throughout the study from the cut tail vein of conscious mice. Following the 28 day treatment period, oral, i.p. and meal test glucose tolerance ([…].), and insulin sensitivity (25 U/kg bw) tests were performed. Glucose was measured using an Ascensia Contour meter and blood was collected and processed for plasma insulin analysis by radioimmunoassay. Body weight and fat mass was also assessed using the PIXImus DEXA scanner whilst energy expenditure, intake, food intake and feeding bouts were assessed using the CLAMS metabolic chamber. HbA1c was analysed post 28 days using Bayer A1C Now^+ Multi Test meter. Lipid profile test was obtained by using the iLab analyser. Cholesterol, triglyceride and HDL-cholesterol levels were measured, in plasma (3 μl), using the iLab analyser. LDL-cholesterol levels were obtained using the Friedewald equation=total cholesterol−HDL−(triglycerides/3).

[1] = once daily 25 nmol/kg bw, 28 days

SMILES: CCCCCCCCCCCCCCCC(=O)N[C@@H](CCC(=O)NCCCC[C@H](NC(=O)[C@H](Cc1c[nH]cn1)NC(=O)[C@H](CO)NC(=O)[C@H](CC(C)C)NC(=O)[C@H](CCCNC(=N)N)NC(=O)[C@@H]1CCCN1C(=O)[C@H](CCCNC(=N)N)NC(=O)[C@@H]1CCC(=O)N1)C(=O)NCC(=O)N1CCC[C@H]1C(=O)N[C@@H](CCSC)C(=O)N1CCC[C@H]1C(=O)N[C@@H](Cc1ccccc1)C(N)=O)C(=O)O [pGlu(Lys^8GluPAL)apelin-13-amide]
- HbA1c levels (after 28 days treatment): significantly reduced
- Percentage fat mass (after 28 days, DEXA analysis): 30.1%
- Insulin sensitivity (after 28 days, insulin 25 U/kg bw): significantly improved
- Glucose tolerance and plasma insulin excursion in response to an i.p and oral glucose challenge (after the 28 day treatment period): significantly improved
- HDL-cholesterol levels compared to the lean control and high fat fed mice (once daily): significantly increased
- Bodyweight reduction [1]: approximately 7%
- Day of study at which bodyweight was significantly decreased [1]: 16 days
- Day of study at which circulating blood glucose began to be significantly reduced and plasma insulin increased [1]: 13 days
- Day of study at which food intake was significantly reduced [1]: 8 days
- LDL-cholesterol levels compared to the high fat fed controls (once daily, Friedewald equation): significantly lowered
- Plasma triglyceride levels (once daily, high-fat fed mice): significantly lower
- Total cholesterol levels in plasma (once daily, high-fat fed mice): significantly lower
